From patent publication US5498632A, “Esters of acyl carnitines with long-chain aliphatic alcohols and pharmaceutical compositions containing same having antibacterial activity” (Sigma-Tau Industrie Farmaceutiche Riunite S.p.A., priority 1992, dated 1996)
Where “and” joins values, the source holds several entries; their conditions need not be identical. Identical values can stand only once.

Key:
[1] = system: H. pylori sessile cells (NCTC 11637); assay: Bactericidal effect against H. pylori sessile cells (attached to HEp-2); format: cell-based, Helicobacter pylori
Text: The investigation aimed at evaluating the difference in susceptibility to ST 722 of planktonic and sessile Helicobacter cells, using in the latter case an "in vitro" experimental model, which closely resembled the clinical condition occurring "in vivo" in type-B gastritis. We used HEp-2 cells, an epithelial cell line which harbors the same membrane glycolipid receptors for H. pylori as those harbored by the mucous cells of the antral gastric mucosa (MEGRAUD, F., TRIMOULET, P., LAMOULIATTE, H. and BOYANOVA, L., 1991. Bacterial effect of Amoxicillin on "H. pylori" in an in vitro model using epithelial cells. Antimicrob. Agents Chemoter. 35 (5): 869-872 and LINGWOOD, C. A., LAW, H. and PELLIZANI, A., 1989. Gastric glycerolipid as a receptor for Campylobacter pylori. Lancet i: 238-241). Additionally, the viability of HEp-2 cells (either infected or not) was evaluated following "in vitro" ST 722 treatment. The degree of cytotoxicity was assessed by cytofiuorimetric analysis of Propidium Iodine-stained HEp-2 cells.
An HEp-2 epithelial cell line (a human larynx carcinoma) was used to permit the attachment of Helicobacter cells (sessile cells).
Helicobacter pylori NCTC 11637.
The antibacterial and cytotoxic activity of ST 722 against Helicobacter and HEp-2 cells, respectively, was evaluated by using 3 different ST 722 concentrations, namely 0.1, 1.56 (i.e. the MIC value vs. H. pylori NCTC 11637) and 4 mcg/ml.
A confluent HEp-2 cell culture is prepared, which is obtained after incubating the cell line in tissue culture flasks for 24 hours (37° C., 10% CO2, and ~96% humidity) in Columbia agar medium supplemented with Vitox and 7% defribinated horse serum. The bacteria are first harvested with DMEM medium 10% FCS, and then inoculated onto the HEp-2 cells to obtain a concentration of 5.0×10^6 CFU per flask (i.e. 2.0×10^5 CFU/cm^2).
Bacterial adhesion to the epitelial cells is favored by incubation for 2 hours at 37° C. and 5% CO2. After washing to remove the non attached bacteria. ST 722 is added (5 ml of 3 different concentrations) to the HEp-2 cell culture flasks.
Two additional flasks are added with 5 ml medium lacking ST 722, as Helicobacter growth controls.
At a predetermined time, the flasks were taken, the medium was discarded, and the cells were washed. The cells were harvested with a rubber policeman in 1 ml of phosphate-buffered saline and disrupted with an Ultraturax homogenizer.
After making geometric dilutions of the suspensions (0.1 ml of each dilution inoculated onto each plate in triplicate), the plates were incubated for 7 days in a microaerobic atmosphere, and the plates with 30 to 200 CFU were counted.
The ST 722 activity against Helicobacter planktonic cells was determined in the same experimental conditions in the absence of HEp-2 cells. Finally, the results are expressed as CFU per flask of each sample with respect to the relevant control (i.e. sessile or planktonic cultures).

HEp-2 cells = assay: HEp-2 cell viability (Propidium Iodine cytofluorimetry); format: cell-based, human
Experimental: The investigation aimed at evaluating the difference in susceptibility to ST 722 of planktonic and sessile Helicobacter cells, using in the latter case an "in vitro" experimental model, which closely resembled the clinical condition occurring "in vivo" in type-B gastritis. […] Additionally, the viability of HEp-2 cells (either infected or not) was evaluated following "in vitro" ST 722 treatment. The degree of cytotoxicity was assessed by cytofiuorimetric analysis of Propidium Iodine-stained HEp-2 cells. […]
The antibacterial and cytotoxic activity of ST 722 against Helicobacter and HEp-2 cells, respectively, was evaluated by using 3 different ST 722 concentrations, namely 0.1, 1.56 (i.e. the MIC value vs. H. pylori NCTC 11637) and 4 mcg/ml. […]
Three and twenty-four hours following ST 722 addition, the cells were trypsinized and harvested by centrifugation at 800 g, The cell pellets were then resuspended in 500 μl PBS and additioned with 6 μl of a 1 mcg/ml Propidium Iodine stock solution in PBS, The same procedure was followed for the control, i.e. HEp-2 cells not infected with H. pylori. The cell suspensions were finally analyzed by means of a FACScan cytofluorimeter.

[2] = system: Staphylococcus aureus (S. aureus LC1); assay: Protective effect in subcutaneous experimental infection in mice; format: in vivo, Staphylococcus aureus in mouse (male CD1); conditions: for Number of bacteria/mouse: 24 hours
Experimental: Male CD1 (C. River) mice aged 9 weeks were used (4 animals per group).
A pathogenic strain of Staphylococcus aureus (S. aureus LC1), isolated from a systemic infection in nude mice, was utilized.
The bacterial cells (kept under liquid nitrogen) are thawed and seeded in 10 ml of TSB medium and finally incubated for approximately 18 hours at 37° C.
The culture is then diluted in sterile saline so as to have 2.2×10^7 bacterial cells in a volume of 0.2 ml.
ST 722 was administered subcutaneously, immediately after bacterial inoculation, at the doses of 5, 20, and 50 mcg in 0.2 ml of sterile saline (single treatment).
ST 722 was administered subcutaneously at a dose of 50 mcg (in 0.2 ml of sterile saline) immediately after bacterial inoculation and again 5 hours later, i.e. 100 total mcg per mouse (double treatment).
The "in vivo" experimental model described by Grunberg et al. (GRUNBERG, E., BERGER, J., BESKID, G., CLEELAND, R., PRINCE, N. H. and TITSWORTH, E., 1967. Studies on the "in vitro" and "in vivo" chemotherapeutic properties of the antibiotics myxin. Chemotherapia 12, 272-281) was utilized.
Briefly, it consisted of a subcutaneous injection into the center of the abdominal wall of the standardized bacterial suspension followed by the s.c. administration of the substance in the same area according to the 2 protocols above.
After 24 hours, the animals were sacrificed, and the abdominal wall (including the peritoneum) was exicised from each animal.
The tissue samples were first homogenized by a Potter-Elvehjem tissue grinder in 5 ml of a sterile saline, then a bacterial count was performed by plating the samples onto a S. aureus selective medium (Baird-Parker agar additioned with Ey tellurite enrichment), which allows to easily detect the number of Staphylococcus colonies.
The number of colonies scored in a series of dilutions for each single sample consents to calculate the number of bacterial cells present in the infected tissue sample as follows: [formula] Where Zi is the number of dilutions performed, Ni is the number of plates prepared for each dilution, and Ci is the total number of bacteria scored in each dilution.

For `CCCCCCCCCCCOC(=O)CC(C[N+](C)(C)C)OC(=O)CC(C)C` [ST 722, Isovaleryl-L-Carnitine Undecyl Ester Chloride], the “Sessile cells (CFU per flask)” value ([1]; 3-h contact, 0.1 mcg/ml) was 9.50 × 10^2 CFU per flask, the “Sessile cells (CFU per flask)” value ([1]; 3-h contact, 1.56 mcg/ml) was 9.50 × 10^2 CFU per flask and the “Sessile cells (CFU per flask)” value ([1]; 3-h contact, 4.0 mcg/ml) was 4.50 × 10^2 CFU per flask. The “Sessile cells (CFU per flask)” value ([1]; 24-h contact, 0.1 mcg/ml) was 4.35 × 10^5 CFU per flask, the “Sessile cells (CFU per flask)” value ([1]; 24-h contact, 1.56 mcg/ml) was 1.80 × 10^5 CFU per flask and the “Sessile cells (CFU per flask)” value ([1]; 24-h contact, 4.0 mcg/ml) was 1.75 × 10^5 CFU per flask. For the same compound, the killing at 4 µg/mL ([1]; Helicobacter pylori, NCTC11637, HEp-2, 3-h contact, 4 mcg/ml, read-out: reduction of number of sessile bacterial cells) was roughly 50%, the “cytotoxicity versus HEp-2 cells” value (HEp-2 cells; 4 mcg/ml (data not shown)) was “unable to induce detectable cytotoxicity” and the “cytotoxicity versus HEp-2 cells” value (HEp-2 cells; Propidium Iodine staining) was “devoid of any cytotoxicity”. For the same compound, the Number of bacteria/mouse ([2]; double treatment s.c., 50 mcg twice (5 hours apart)) was 3.1×10^5 bacteria/mouse and 5.61 × 10^5 bacteria/mouse, the “reduction of the infective process” value ([2]; single treatment s.c., 5 mcg) was “unable to reduce the infective process” and the Number of bacteria/mouse ([2]; single treatment s.c., 5 mcg, control 1.11 × 10^8) was 1.21 × 10^8 bacteria/mouse. For the same compound, the “reduction of bacterial infection extent” value ([2]; single treatment s.c., 20 and 50 mcg) was “dose-dependently reduced in an appreciable manner the bacterial infection extent”, the Number of bacteria/mouse ([2]; single treatment s.c., 20 mcg, control 1.11 × 10^8) was 1.21 × 10^8 bacteria/mouse and the Number of bacteria/mouse ([2]; single treatment s.c., 50 mcg, control 1.11 × 10^8) was 5.61 × 10^5 bacteria/mouse.
